Test results taken from patent US20190195864A1, “CELL-FREE SENSOR SYSTEMS” (priority 2016, published 2019).

Experiments:
[1] = target: T1, tetR (Escherichia coli, UniProt P04483); test: T7 in vitro transcription from tetR-controlled reporter plasmid, ATC titration; assay type: biochemical; conditions: 100 nM tetR and 100 nM reporter plasmid; ATC titrated 2 uM to 0 uM; 37° C., 4 hours; agarose gel readout
T1 construct: The tetR gene was cloned into the pET28a(+) E. coli expression plasmid; 6xHis (C); made in house; host or cells: E. coli BL21(DE3), pET28a(+)
T1 sequence (P04483 whole entry): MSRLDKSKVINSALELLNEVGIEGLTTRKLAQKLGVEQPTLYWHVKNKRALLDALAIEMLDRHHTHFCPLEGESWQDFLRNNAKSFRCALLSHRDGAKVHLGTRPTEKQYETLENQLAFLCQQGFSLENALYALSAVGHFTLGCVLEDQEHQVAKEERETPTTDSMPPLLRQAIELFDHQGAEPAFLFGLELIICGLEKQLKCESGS
Method: Using a fixed amount of tetR and plasmid, 100 nM each, T7 transcription reactions were set up as described above with the inclusion of a titrating amount of anhydrotetracycline (ATC), the native ligand for tetR. The ATC titration ranged from 2 uM to 0 uM. The IVT transcripts were analyzed by gel as described above. […] This titratable response is a requirement when working with engineered sensors cell-free to enrich a population for those members with improved ligand binding function in the pool.

[2] = test system: cells; test: cell-based dose response of TetR sensors to nootkatone (FIG. 10); conditions: cell-based sensor assay
From the text: This is particularly useful in situations when, inter alia, a target molecule is toxic to cells in vivo and therefore a sensor to conduct cell-based detection is impractical. […] Accordingly, the detection of this target molecule would benefit from the cell-free methods described herein.

Row | Compound | ATC concentration giving a strong RNA band similar to no tetR (full derepression of transcription) [1] | nootkatone concentration after which there is a toxic effect and the cells start to die [2]
1 | Cc1c2c(c(O)c3c(O)cccc13)C(=O)[C@]1(O)C(=O)C(C(N)=O)=C(O)[C@@H](N(C)C)[C@@H]1C2 [ATC, anhydrotetracycline] | 200 nM | 
2 | C=C(C)[C@@H]1CCC2=CC(=O)C[C@@H](C)[C@]2(C)C1 [nootkatone] |  | > 0.5 mg/mL
